PubChem BioAssay AID504573 (Southern Research Specialized Biocontainment Screening …, 2011)

Test system: host cell cytotoxicity, % cell control, 5% serum
Assay: host cell cytotoxicity, R5 fusion assay cells, dose response, cytotoxicity control for HIV-1 antiviral lead project, CCR5-tropic fusion assay, 5% serum, set 2 (AID 504573)

| SMILES | CC50 |
| --- | --- |
| Cc1c2c(=O)n(-c3nc4ccccc4s3)nc-2cc(O)n1CCC(C)C | 5.64 µM |
| Cc1c2c(=O)n(-c3nc4ccccc4s3)nc-2cc(O)n1Cc1ccncc1 | 5.07 µM |
| COc1ccc(CCn2c(O)cc3nn(-c4nc5ccccc5s4)c(=O)c-3c2C)cc1 | 7.2 µM |
| Cc1c2c(=O)n(-c3nc4ccccc4s3)nc-2cc(O)n1CCc1cccs1 | 5.51 µM |
| Cc1c2c(=O)n(-c3nc4ccccc4s3)nc-2cc(O)n1Cc1ccccc1 | 5.4 µM |
| Cc1c2c(=O)n(-c3nc4ccccc4s3)nc-2cc(O)n1Cc1cccs1 | 5.94 µM |
| Cc1c2c(=O)n(-c3nc4ccccc4s3)nc-2cc(O)n1Cc1cccnc1 | 3.89 µM |
| Cc1c2c(=O)n(-c3nc4ccccc4s3)nc-2cc(O)n1Cc1ccc(F)cc1 | 4.4 µM |
| COc1ccc(Cn2c(O)cc3nn(-c4nc5ccccc5s4)c(=O)c-3c2C)cc1 | 5.15 µM |
| COc1ccccc1Cn1c(O)cc2nn(-c3nc4ccccc4s3)c(=O)c-2c1C | 8.08 µM |
| Cc1c2c(=O)n(-c3nc4ccccc4s3)nc-2cc(O)n1CCc1ccc(O)cc1 | 3.74 µM |
| Cc1c2c(=O)n(-c3nc4ccccc4s3)nc-2cc(O)n1C1CC1 | 4.98 µM |
| Cc1c2c(=O)n(-c3nc4ccccc4s3)nc-2cc(O)n1Cc1ccccc1Cl | 4.34 µM |
